Structures can show the parent of a compound that is named as a salt. Where two headings read alike, the source gives them in different places.
How the values were obtained:
[1] = target: GDP-bound KRAS protein (aa 1-169), containing both G12D and C118A amino acid substitutions (Homo sapiens (Human), UniProt P01116, C118A/G12D); assay: KRAS G12D Coupled Nucleotide Exchange Assay; assay type: biochemical
[2] = target: His-tagged KRAS G12D protein (Homo sapiens (Human), UniProt P01116, G12D); assay: KRAS G12D TR-FRET Assay; assay type: binding
Chain of His-tagged KRAS G12D protein (P01116 other isoform, or with tags, fused parts or gaps G12D): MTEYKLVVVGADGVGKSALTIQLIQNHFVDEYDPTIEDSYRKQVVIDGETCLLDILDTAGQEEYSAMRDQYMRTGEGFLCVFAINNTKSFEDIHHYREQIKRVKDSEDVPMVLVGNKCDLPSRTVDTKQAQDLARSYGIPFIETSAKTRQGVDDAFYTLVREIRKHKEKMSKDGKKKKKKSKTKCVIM
Summary of the method: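 Each incubation ran at room temperature: enzyme with compound for 30 minutes, peptide for one hour, and detection reagents (0.4 nM europium anti-6×His, 5 nM streptavidin-d2) for one hour more. Protein and peptide stocks were each diluted to 20 nM before addition.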

AsPC-1 cells = assay: AsPC-1 CTG Assay (CellTiter-Glo cell viability); assay type: cell-based, human; conditions: first value of the cell, read-out: G12D/C/V Cell Proliferation CTG (72 h) AsPC-1
Experimental: AsPC-1 and SW620 CTG Assay Protocols
AsPC-1 (human pancreatic adenocarcinoma; ATCC CRL-1682) or SW620 (human colon adenocarcinoma; ATCC CCL-227) cells were cultured in RPMI 1640 medium containing 10% fetal bovine serum and 1× penicillin/streptomycin/L-glutamine. Cells were seeded in 384-well plates at a density of 3.33E+04 cells/mL and incubated at 37° C., 5% CO2, overnight. Serially-diluted compound or DMSO was added to the cells, and plates were incubated at 37° C., 5% CO2 for 72 h. Cell viability was measured using a CellTiter-Glo® Luminescent Cell Viability Assay kit (Promega) according to the manufacturer's protocol. The luminescence signal of treated samples was normalized to DMSO control, and data were analyzed using a 4-parameter logistic model to calculate IC50 values.

[3] = test system: Phosphorylation of ERK1/2 in AsPC-1 cells; assay: Phospho-ERK1/2 MSD Assay; assay type: cell-based, human
Summary of the method: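 Read-out: MSD electrochemiluminescent detection of phosphorylated ERK1/2 in whole-cell lysates, fitted to a 4-parameter logistic curve for IC50. Prior to lysis, AsPC-1 cells (25,000 per well) received a 2 h compound dose-response at 37 °C.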

[4] = read-out: KRAS G12D Coupled Exchange IC50
[5] = read-out: KRAS G12D Binding IC50
[6] = Homo sapiens, ASPC1, 72 h, AsPC-1, 72 h
[7] = Homo sapiens, ASPC1, 2 h, read-out: 2 h p-ERK (AsPC-1 cells), IC50
[8] = 2 hours compound pre-incubation, read-out: KRAS G12D Coupled Exchange
[9] = TR-FRET, read-out: KRAS G12D Binding
[10] = Homo sapiens, ASPC1, 72 h, AsPC-1 cells (G12D), 72 h
[11] = Homo sapiens, ASPC1, 2 h, read-out: 2 h p-ERK (AsPC-1 cells)

Chain of GDP-bound KRAS protein (aa 1-169), containing both G12D and C118A amino acid substitutions (P01116 other isoform, or with tags, fused parts or gaps G12D/C118A): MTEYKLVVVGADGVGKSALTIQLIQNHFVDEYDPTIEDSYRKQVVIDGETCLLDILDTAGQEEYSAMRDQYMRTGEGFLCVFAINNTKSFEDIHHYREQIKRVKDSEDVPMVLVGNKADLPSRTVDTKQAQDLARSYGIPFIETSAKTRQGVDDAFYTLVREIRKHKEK

| Structure (SMILES) | IC50 [1, 4] | IC50 [2, 5] | IC50 (AsPC-1 cells; [6]) | IC50 [3, 7] | IC50 (AsPC-1 cells; AsPC-1, 72 h) | IC50 ([3]; 2 h, read-out: 2 h p-ERK (AsPC-1 cells), IC50) | IC50 [1, 8] | IC50 [2, 9] | IC50 (AsPC-1 cells; [10]) | IC50 [3, 11] |
| --- | --- | --- | --- | --- | --- | --- | --- | --- | --- | --- |
| Cc1cc2[nH]ncc2c2c1CCCCC(=O)O[C@]1(CF)CCCN(C1)c1nc(OC[C@@]34CCCN3C[C@H](F)C4)nc3c(F)c-2ncc13 [Example 33, (17R)-30-fluoro-17-(fluoromethyl)-24-(((2R,7aS)-2-fluorotetrahydro-1H-pyrrolo[1,2-a]pyrrol-7a(5H)-yl)methoxy)-9-methyl-16-oxa-5,6,21,23,25,29-hexaazahexacyclo[24.3.1.1~17,21~.0~2,10~.0~3,7~.0~22,27~]hentriaconta-1(30),2,4,7,9,22,24,26,28-nonaen-15-one] | 4 nM | 6 nM | 809 nM | 77 nM | – | – | – | – | – | – |
| CN1C(=O)CCCc2c(F)ccc3cccc(c23)-c2ncc3c(nc(OC[C@@]45CCCN4C[C@H](F)C5)nc3c2F)N2CCC[C@]1(C)C2 [Example 167, (15R)-22,31-difluoro-8-(((2R,7aS)-2-fluorotetrahydro-1H-pyrrolo[1,2-a]pyrrol-7a(5H)-yl)methoxy)-15,16-dimethyl-3,7,9,11,16-pentaazahexacyclo[19.7.1.1~2,6~.1~11,15~.0~5,10~.0~25,29~]hentriaconta-1(29),2(31),3,5,7,9,21,23,25,27-decaen-17-one] | 20 nM | 44 nM | 5000 nM | 1590 nM | – | – | – | – | – | – |
| Cc1cc2[nH]ncc2c2c1C/C=C/COC[C@@H]1CCCN(C1)c1nc(OC[C@@]34CCCN3C[C@H](F)C4)nc3c(F)c-2ncc13 [Example 130] | 2 nM | 5 nM | 230 nM | 32 nM | – | – | – | – | – | – |
| CN(C)CC1(COc2nc3c4cnc(c(F)c4n2)-c2c(c(Cl)cc4[nH]ncc24)CCCOC(=O)O[C@]2(C)COCCN3C2)CC1 (single isomer, unassigned) [Example 331] | 3 nM | 5 nM | 115 nM | 15.4 nM | – | – | – | – | – | – |
| C[C@@]12CCCN(C1)c1nc(OC[C@@]34CCCN3C[C@H](F)C4)nc3c(F)c(ncc13)-c1cc(O)cc3c1[C@@H](CCCC(=O)N2)CCC3 [Example 27, (15R,21R)-31-Fluoro-8-(((2R,7aS)-2-fluorotetrahydro-1H-pyrrolo[1,2-a]pyrrol-7a(5H)-yl)methoxy)-27-hydroxy-15-methyl-3,7,9,11,16-pentaazahexacyclo[19.7.1.1˜2,6˜.1˜11,15˜.0˜5,10˜.0˜25,29˜]hentriaconta-1(29),2(31),3,5,7,9,25,27-octaen-17-one 2,2,2-trifluoroacetate salt] | 5 nM | 7 nM | 661 nM | 180 nM | – | – | – | – | – | – |
| O=C1OCCCc2c(Cl)cccc2-c2ncc3c(nc(OC[C@@]45CCCN4C[C@H](F)C5)nc3c2F)N2CCOC[C@H](C2)O1 [Example 186, (23S)-15-chloro-29-fluoro-4-(((2R,7aS)-2-fluorotetrahydro-1H-pyrrolo[1,2-a]pyrrol-7a(5H)-yl)methoxy)-20,22,25-trioxa-1,3,5,9-tetraazapentacyclo[21.4.1.1~6,10~.0~2,7~.0~11,16~]nonacosa-2,4,6,8,10(29),11,13,15-octaen-21-one] | 9 nM | 12 nM | – | – | 1950 nM | 200 nM | – | – | – | – |
| Fc1c2ncc3c(nc(OC[C@@]45CCCN4C[C@H](F)C5)nc13)N1CCO[C@@H](COCC[C@@H]3C[C@@H]3c3c(Cl)cc4[nH]ncc4c3-2)C1 [Example 392, (11S,13S,18R)-9-chloro-31-fluoro-25-(((2R,7aS)-2-fluorotetrahydro-1H-pyrrolo[1,2-a]pyrrol-7a(5H)-yl)methoxy)-16,19-dioxa-5,6,22,24,26,30-hexaazaheptacyclo[25.3.1.1~18,22~.0~2,10~.0~3,7~.0~11,13~.0~23,28~]dotriaconta-1(31),2,4,7,9,23,25,27,29-nonaene] | – | – | – | – | – | – | 4 nM | 6 nM | 291 nM | 31.5 nM |
| Cc1cc2[nH]ncc2c2c1CCCCC(=O)O[C@]1(C)CCCN(C1)c1nc(OC[C@@]34CCCN3C[C@H](F)C4)nc3c(F)c-2ncc13 [Example 32, (17R)-30-fluoro-24-(((2R,7aS)-2-fluorotetrahydro-1H-pyrrolo[1,2-a]pyrrol-7a(5H)-yl)methoxy)-9,17-dimethyl-16-oxa-5,6,21,23,25,29-hexaazahexacyclo[24.3.1.1~17,21~.0~2,10~.0~3,7~.0~22,27~]hentriaconta-1(30),2,4,7,9,22,24,26,28-nonaen-15-one] | 3 nM | 5 nM | 422 nM | 43 nM | – | – | – | – | – | – |
| O=C1COCCCc2c(Cl)cc3[nH]ncc3c2-c2ncc3c(nc(OC[C@@]45CCCN4C[C@H](F)C5)nc3c2F)N2CCCC[C@H](C2)N1 [Example 272, (27R)-18-chloro-33-fluoro-4-(((2R,7aS)-2-fluorotetrahydro-1H-pyrrolo[1,2-a]pyrrol-7a(5H)-yl)methoxy)-23-oxa-1,3,5,9,14,15,26-heptaazahexacyclo[25.4.1.1~6,10~.0~2,7~.0~11,19~.0~12,16~]tritriaconta-2,4,6,8,10(33),11,13,16,18-nonaen-25-one] | 3 nM | 11 nM | 1760 nM | 250 nM | – | – | – | – | – | – |
| Fc1c2ncc3c(nc(OC[C@@]45CCCN4C[C@H](F)C5)nc13)N1CCO[C@H](C1)c1coc(n1)CCCc1c(Cl)cc3[nH]ncc3c1-2 [Example 390, (18R)-9-chloro-31-fluoro-25-(((2R,7aS)-2-fluorotetrahydro-1H-pyrrolo[1,2-a]pyrrol-7a(5H)-yl)methoxy)-15,19-dioxa-5,6,22,24,26,30,33-heptaazaheptacyclo[25.3.1.1~14,17~.1~18,22~.0~2,10~.0~3,7~.0~23,28~]tritriaconta-1(31),2,4,7,9,14(33),16,23,25,27,29-undecaene] | – | – | – | – | – | – | 3 nM | 5 nM | 74 nM | 9.5 nM |
| CC(=O)n1ncc2c3c(c(Cl)cc21)CCCOC(=O)O[C@@H]1COCCN(C1)c1nc(OC[C@@]24CCCN2C[C@H](F)C4)nc2c(F)c-3ncc12 [Example 213, (26S)-15-Acetyl-18-chloro-32-fluoro-4-(((2R,7aS)-2-fluorotetrahydro-1H-pyrrolo[1,2-a]pyrrol-7a(5H)-yl)methoxy)-23,25,28-trioxa-1,3,5,9,14,15-hexaazahexacyclo[24.4.1.1˜6,10˜.0˜2,7˜.0˜11,19˜.0˜12,16˜]dotriaconta-2,4,6(32),7,9,11,13,16,18-nonaen-24-one] | 15 nM | 46 nM | 5 nM | 4.9 nM | – | – | – | – | – | – |
| O=C1N[C@@H]2CCCCN(C2)c2nc(OC[C@@]34CCCN3C[C@H](F)C4)nc3c(F)c(ncc23)-c2c3c(cc4[nH]ncc24)CC[C@H]3CCO1 [Example 301, (16R,22S)-34-fluoro-8-(((2R,7aS)-2-fluorotetrahydro-1H-pyrrolo[1,2-a]pyrrol-7a(5H)-yl)methoxy)-19-oxa-3,7,9,11,17,28,29-heptaazaheptacyclo[20.9.1.1~2,6~.1~11,16~.0~5,10~.0~25,32~.0~27,31~]tetratriaconta-1(31),2(34),3,5,7,9,25(32),26,29-nonaen-18-one] | 3 nM | 5 nM | 954 nM | 60.5 nM | – | – | – | – | – | – |
| C[C@@H]1CCOC[C@H]2CN(CCO2)c2nc(OC[C@@]34CCCN3C[C@H](F)C4)nc3c(F)c(ncc23)-c2c(c(Cl)cc3[nH]ncc23)C1 [Example 253, (12S,17R)-9-chloro-30-fluoro-24-(((2R,7aS)-2-fluorotetrahydro-1H-pyrrolo[1,2-a]pyrrol-7a(5H)-yl)methoxy)-12-methyl-15,18-dioxa-5,6,21,23,25,29-hexaazahexacyclo[24.3.1.1~17,21~.0~2,10~.0~3,7~.0~22,27~]hentriaconta-1(30),2,4,7,9,22,24,26,28-nonaene] | 6 nM | 9 nM | 1200 nM | 67.8 nM | – | – | – | – | – | – |
| O[C@@H]1C[C@@H]2COCCCCc3c(Cl)cc4[nH]ncc4c3-c3ncc4c(nc(OC[C@@]56CCCN5C[C@H](F)C6)nc4c3F)N(C1)C2 [Example 406, (17S,19R)-9-Chloro-30-fluoro-24-(((2R,7aS)-2-fluorotetrahydro-1H-pyrrolo[1,2-a]pyrrol-7a(5H)-yl)methoxy)-15-oxa-5,6,21,23,25,29-hexaazahexacyclo[24.3.1.1˜17,21˜.0˜2,10˜.0˜3,7˜.0˜22,27˜]hentriaconta-1(30),2,4,7,9,22,24,26,28-nonaen-19-ol] | – | – | – | – | – | – | 4 nM | 21 nM | 1940 nM | 261 nM |

Source: patent US20240294551A1 (AMGEN INC., priority 2022, published 2024)
